According to patent US11497694B2, “Oral care compositions” (Colgate-Palmolive Company, priority 2017, dated 2022):

System: bacteria
Test: Stabilizing effect of lysine on CPC-STPP / CPC-DV interaction (bacterial viability)
Type: cell-based
Conditions: PBS 100
Description: Compositions were created to test the stabilizing effect that lysine had on the CPC and DV polymer. Mouthwashes were created according to the method of Example 1. Each sample was created with CPC and either STPP or DV. The compositions also contained varied amounts of lysine. The samples created are summarized below.

CCO [Ethanol]
Bacterial Viability at pH 4.6 (%) (CPC-DV mouthwashes with varied lysine, pH 4.6): 11% | Bacterial Viability at pH 6.0 (%) (CPC-DV mouthwashes with varied lysine, pH 6.0): 19% | Bacterial Viability (%) (CPC-STPP mouthwashes with varied lysine): 23%
